{
  "source": "patent US20240398973A1",
  "about": "“ENGINEERED ANTIBODY COMPOUNDS AND CONJUGATES THEREOF” (Eli Lilly and Company, priority 2017, published 2024)",
  "key": {"human primary PMNs": {"system": "human primary PMNs", "test": "PMN reactive oxygen species (ROS) production, luminol-amplified chemiluminescence", "type": "cell-based", "details": "for PMN ROS production: relative to 3000 nM fMLF, AUC 5 minutes (Table 8b)", "quoted_text": "Production of ROS by human primary PMNs is measured using luminol-amplified chemiluminescence. Following isolation, PMNs are suspended at 1×10^6 cells/ml in HBSS containing calcium and magnesium (Gibco #14025-092) supplemented with 0.25% human serum albumin (Gemini Bio producst #800-124) and 50 uM Luminol (SigmaAldrich #123072-2.5G). 100 μl of cell suspension (1×10^5 total cells) is then distributed into each well of a 96-well plate suitable for fluorescence measurement (Greiner #655098) and temperature equilibrated to 37° C. for 5 minutes. Following equilibration, 10× solution of antibody conjugate is applied to the wells, achieving a 1× final concentration.\nImmediately after the addition of antibody conjugate, chemiluminescence signal is recorded in a luminometer maintained at 37° C. with 0.01 seconds dwell time per well, 20 seconds total time between sequential plate readings and 45 minutes total run time (PerkinElmer EnVision Multilabel Plate Reader)."}, "[1]": {"system": "primary human polymorphonuclear neutrophil (PMN)", "test": "PMN chemotaxis (transwell, modified Boyden chamber)", "type": "cell-based", "details": "relative to 100 nM fMLF, raw migration values (Table 4b)", "procedure": "Chemotaxis is measured by observing primary human polymorphonuclear neutrophil (PMN) migration across transwell membranes (Corning #3415) towards antibody conjugates in a modified Boyden chamber assay. Approximately 2-4×10^5 cells from neutrophil-enriched preparations are seeded in upper transwell chambers on membranes with 3.0 um pores. The lower transwell chambers contain solutions of buffer alone and fMLF (N-formyl-Met-Leu-Phe peptide as positive control) and experimental antibody bioconjugates. […] Cell numbers are determined using standard curves. All data are transformed to percent relative to the maximal fMLF response for each individual experiment."}, "[2]": {"system": "Mouse neutrophils purified from marrow", "test": "Mouse PMN ROS production", "type": "cell-based", "details": "relative to 10000 nM fMLF, AUC 5 minutes (Table 8c)", "quoted_text": "Mouse neutrophils purified from marrow were exposed to formyl peptides or antibody conjugates and ROS production was measured using luminol amplified chemiluminescence essentially as described above."}, "[3]": {"biological_target": "formyl peptide receptor 1 (FPR1) on primary human polymorphonuclear neutrophils (human) (UniProt P21462)", "test": "cell-based or functional assay"}, "[4]": {"biological_target": "formyl peptide receptor 1 (FPR1) on primary human polymorphonuclear neutrophils (human) (UniProt P21462)", "test": "cell-based or functional assay", "remark": "listed apart in the source"}},
  "note": "Read-outs that look alike come from different tables or passages of the source. Where no end group is shown, it is not given here. The star is where a group is joined. hydrolyzed maleimide‑PEG linker = hydrolyzed maleimide-polyethylene glycol (PEG) linker, bound to the Lys side chain through an epsilon amide bond; For = O=C*",
  "data": [
    {"substance": "FRM-021: SEQ ID NO: 36; formyl-Met-Ile-Phe-Leu-Lys, lysine side chain epsilon amide to a hydrolyzed maleimide-PEG linker (For-MIFLK(hydrolyzed maleimide‑PEG linker))", "values": [
      {"measurement": "PMN ROS production", "setting": "human primary PMNs; 10 nM", "result": 8.4, "unit": "percentage"},
      {"measurement": "PMN ROS production", "setting": "human primary PMNs; 30 nM", "result": 34.4, "unit": "percentage"},
      {"measurement": "PMN ROS production", "setting": "human primary PMNs; 100 nM", "result": 69.2, "unit": "percentage"},
      {"measurement": "PMN ROS production", "setting": "human primary PMNs; 300 nM", "result": 84.4, "unit": "percentage"},
      {"measurement": "PMN ROS production", "setting": "human primary PMNs; 1000 nM", "result": 91.2, "unit": "percentage"},
      {"measurement": "PMN ROS production", "setting": "human primary PMNs; 3000 nM", "result": 102.9, "unit": "percentage"},
      {"measurement": "PMN ROS production", "setting": "human primary PMNs; 10000 nM", "result": 91.7, "unit": "percentage"},
      {"measurement": "EC50", "setting": "human primary PMNs; Best-Fit values in Graphpad PRISM (Table 8b)", "result": 51.2, "unit": "nM"},
      {"measurement": "PMN Chemotaxis Towards Formyl Peptides", "setting": "[1]; 1 nM", "result": 151.7, "unit": "%"},
      {"measurement": "PMN Chemotaxis Towards Formyl Peptides", "setting": "[1]; 3 nM", "result": 142.2, "unit": "%"},
      {"measurement": "PMN Chemotaxis Towards Formyl Peptides", "setting": "[1]; 10 nM", "result": 137.4, "unit": "%"},
      {"measurement": "PMN Chemotaxis Towards Formyl Peptides", "setting": "[1]; 30 nM", "result": 52.9, "unit": "%"},
      {"measurement": "PMN Chemotaxis Towards Formyl Peptides", "setting": "[1]; 100 nM", "result": 37.0, "unit": "%"},
      {"measurement": "PMN Chemotaxis Towards Formyl Peptides", "setting": "[1]; 300 nM", "result": 35.6, "unit": "%"},
      {"measurement": "PMN Chemotaxis Towards Formyl Peptides", "setting": "[1]; 1000 nM", "result": 22.8, "unit": "%"},
      {"measurement": "Mouse PMN ROS Production", "setting": "[2]; 10 nM", "result": 14.5, "unit": "percentage"},
      {"measurement": "Mouse PMN ROS Production", "setting": "[2]; 30 nM", "result": 17.3, "unit": "percentage"},
      {"measurement": "Mouse PMN ROS Production", "setting": "[2]; 100 nM", "result": 112.6, "unit": "percentage"},
      {"measurement": "Mouse PMN ROS Production", "setting": "[2]; 300 nM", "result": 150.3, "unit": "percentage"},
      {"measurement": "Mouse PMN ROS Production", "setting": "[2]; 1000 nM", "result": 180.2, "unit": "percentage"},
      {"measurement": "Mouse PMN ROS Production", "setting": "[2]; 3000 nM", "result": 194.4, "unit": "percentage"},
      {"measurement": "Mouse PMN ROS Production", "setting": "[2]; 10000 nM", "result": 186.9, "unit": "percentage"}
    ]},
    {"substance": "TMab-G1-fMLFK-HC-124C-378C (antibody)", "values": [
      {"measurement": "EC50 of PMN ROS production", "setting": "[3]", "result": 164, "unit": "nM"}
    ]},
    {"substance": "fMLF (N-formyl-Met-Leu-Phe peptide)", "values": [
      {"measurement": "EC50 of PMN ROS production", "setting": "[3]", "result": 334, "unit": "nM"},
      {"measurement": "EC50 of PMN ROS production", "setting": "[4]", "result": 154, "unit": "nM"}
    ]}
  ]
}
